Earlier results, collected in patent publication US8399704B2, “Methods for salt production” (Colgate-Palmolive Company, priority 2008, dated 2013).

Details: room temperature, natural partial pressure (3.5×10^−4 atmosphere)

O=C=O [Carbon dioxide]
maximum concentration of carbon dioxide in water: about 1.2×10^−5 M
